The text below walks through data of paper PMC11066877, “Development and Characterization of Novel FAP-Targeted Theranostic Pairs: A Bench-to-Bedside Study” (Research, 2023).

Data set [1] in a line: microPET/CT imaging, ROI analysis, Panc-02 tumor models. The class given is in vivo, mice. The following applies: C57BL/6, mouse, intravenous, 3 MBq, 1 h after tracer injection. Here is the method: (§1) A human pancreatic cancer cell line BxPC-3 and a murine pancreatic cancer cell Panc-02 were obtained from the American Type Culture Collection. The pancreatic cancer cell line T3M-4 was purchased by MeisenCTCC (Zhejiang, China). BxPC-3 and T3M-4 cell lines were grown in RPMI 1640 medium (Shanghai BasalMedia Technologies Co., LTD.) containing 10% FBS (GE Healthcare, Chicago, IL, USA) and 1% penicillin–streptomycin solution (Invitrogen). To culture the Panc-02 cell line, a medium called Dulbecco’s modified Eagle medium from Shanghai BasalMedia Technologies Co., LTD. was used, which consisted of 10% FBS. The cell line HT-1080 was grown in MEM medium (Shanghai BasalMedia Technologies Co., LTD.) supplemented with 10% FBS, 1% penicillin-streptomycin solution, and 1% nonessential amino acids (NEAA-11140050; Gibco). A human fibrosarcoma cell line was stably transfected with FAP (HT1080-FAP) and cultured, as we previously described. All cell lines were cultured in a humid incubator with 5% CO2 at a temperature of 37 °C. Approval was granted by the Institutional Animal Care and Use Committee (Renji Hospital, School of Medicine, Shanghai Jiao Tong University) for all experimental protocols and procedures related to animal care. Panc-02 cells were implanted by subcutaneous injection of 5 × 10^6 tumor cells suspended in 100 μl PBS and matrigel matrix (Corning) with equal volume into the upper limb flank of C57BL/6 mice (Shanghai Sheng Chang Biotechnology Co., Ltd.). Four- to 6-week-old thymus-free nude mice (GemPharmatech) were subcutaneously inoculated with BxPC-3, T3M-4, HT-1080, and HT1080-FAP cells (5 × 10^6 in 100 μl of PBS mixing with 100 μl matrigel matrix) in the right shoulder. […]
(§2) MicroPET imaging was performed on isoflurane-anesthetized mice injected intravenously via the lateral tail vein with around 3 MBq (2.5 nmol) of the radioligand at certain times. […] The information was analyzed using OsiriX Lite software (Pixmeo SARL) and Inveon Research Workplace (Siemens Preclinical Solutions). […]

Data set [2] concerns tumor lesions of patients. As to the kind of experiment: [68Ga]Ga-DOTA-FD1 PET/CT imaging in tumor patients. In kind it is in vivo, human. The following applies: for Lymph node metastases Median SUVmax (range) / Primary tumor Median SUVmax: initial staging. Here is the method: (§3) This clinical trial received ethical approval from the institutional review board of The First Affiliated Hospital of Xiamen University and has been registered at ClinicalTrials.gov (NCT04849247). All healthy volunteers (n = 3) and patients (n = 6) provided written informed consent before participation. There was no need for any particular preparation for [^68Ga]Ga-DOTA-FD1 PET/CT. Each participant was administered a dose of [^68Ga]Ga-DOTA-FD1 at a rate of 3.0 to 3.7 MBq/kg. Adverse events were under observation for 4 h after the injection of [^68Ga]Ga-DOTA-FD1. A hybrid PET/CT system (Discovery MI, GE Healthcare, Milwaukee, WI, USA) was used to perform static PET/CT imaging after 60 min of injection. PET/CT scan was conducted from the head region to the upper thighs (for [^68Ga]Ga-DOTA-FD1 PET/CT). For the CT scan, the parameters utilized were 110 kV, 80 mA, and a slice thickness measuring 3.75 mm. The obtained data were transferred to the Advantage Workstation (version AW 4.7, GE Healthcare). The Bayesian penalized likelihood reconstruction algorithm (Q.clear, GE Healthcare) was utilized for image reconstruction, employing a penalization factor (beta) of 500. For tumor staging/restaging, a total of 6 patients received paired PET/CT imaging using [^68Ga]Ga-DOTA-FD1. In terms of quantitative assessment, the maximum standardized uptake value (SUVmax) and the mean SUV (SUVmean) were employed to quantify the uptake of the radiopharmaceutical in both normal organs and tumor tissues.

Data set [3] can be described thus: [68Ga]Ga-DOTA-FD1 PET/CT imaging in tumor patients. In kind it is in vivo, human. The following applies: human. Here is the method:
as §3

The nature of data set [4]: Ex vivo biodistribution after imaging, HT1080-FAP tumor models. The following applies: nude (thymus-free), mouse, intravenous, total radioactivity. In kind it is in vivo, mice. Here is the method:
(§4) A human pancreatic cancer cell line BxPC-3 and a murine pancreatic cancer cell Panc-02 were obtained from the American Type Culture Collection. The pancreatic cancer cell line T3M-4 was purchased by MeisenCTCC (Zhejiang, China). BxPC-3 and T3M-4 cell lines were grown in RPMI 1640 medium (Shanghai BasalMedia Technologies Co., LTD.) containing 10% FBS (GE Healthcare, Chicago, IL, USA) and 1% penicillin–streptomycin solution (Invitrogen). To culture the Panc-02 cell line, a medium called Dulbecco’s modified Eagle medium from Shanghai BasalMedia Technologies Co., LTD. was used, which consisted of 10% FBS. The cell line HT-1080 was grown in MEM medium (Shanghai BasalMedia Technologies Co., LTD.) supplemented with 10% FBS, 1% penicillin-streptomycin solution, and 1% nonessential amino acids (NEAA-11140050; Gibco). A human fibrosarcoma cell line was stably transfected with FAP (HT1080-FAP) and cultured, as we previously described. All cell lines were cultured in a humid incubator with 5% CO2 at a temperature of 37 °C. Approval was granted by the Institutional Animal Care and Use Committee (Renji Hospital, School of Medicine, Shanghai Jiao Tong University) for all experimental protocols and procedures related to animal care. Panc-02 cells were implanted by subcutaneous injection of 5 × 10^6 tumor cells suspended in 100 μl PBS and matrigel matrix (Corning) with equal volume into the upper limb flank of C57BL/6 mice (Shanghai Sheng Chang Biotechnology Co., Ltd.). Four- to 6-week-old thymus-free nude mice (GemPharmatech) were subcutaneously inoculated with BxPC-3, T3M-4, HT-1080, and HT1080-FAP cells (5 × 10^6 in 100 μl of PBS mixing with 100 μl matrigel matrix) in the right shoulder. Follow-up microPET/CT imaging and ex vivo biodistribution experiments were performed when the tumor diameter reached 8 to 9 mm.
After imaging collection and image reconstruction, samples from euthanized experimental mice, including blood and multiple significant organs, were harvested and weighed. The radioactivity in each collected tissue was counted using an automated gamma counter (Wizard 2480, PerkinElmer) and the accumulation of radioactivity in different tissues and organs was quantified and expressed as %ID/g (mean ± SD). [^177Lu]Lu-DOTA-FD1 (~1.11 MBq, n = 3), [^177Lu]Lu-DOTA-FD2 (~1.11 MBq, n = 3), and [^177Lu]Lu-DOTA-FD3 (~1.11 MBq, n = 3) were injected into the tail vein of free nude mice at 6 h, 24 h, and 24 h for ex vivo biodistribution to verify the circulation time of the 3 probes in vivo. Biodistribution data from tumor-bearing mice injected with [^177Lu]Lu-DOTA-FD3 at 45 h (~1.11 MBq, n = 4) and 90 h (~1.11 MBq, n = 3) validated the prolonged enrichment of the probe at the tumor site. At the end of each probe imaging and radioactivity counting study, tumor tissues were fixed in paraformaldehyde tissue fixative. Briefly, sections of 10 μm were cut and stained for H&E following the standard protocols. IHC staining with a FAP antibody (ab227703, Abcam) was performed only on tumor tissues following accepted techniques.

Data set [5] is described as follows: microPET/CT imaging, ROI analysis, BxPC-3 tumor models. Particulars: nude (thymus-free), mouse, intravenous, 3 MBq, 1 h after tracer injection. The class given is in vivo, mice. Here is the method:
as §1, §2

Data set [6] can be described thus: Ex vivo biodistribution after imaging, HT-1080 tumor models. In kind it is in vivo, mice. The following applies: nude (thymus-free), mouse, intravenous, 3 MBq, total radioactivity, after imaging at 30 min p.i., read-out: tumor uptake (biodistribution study). Here is the method: A human pancreatic cancer cell line BxPC-3 and a murine pancreatic cancer cell Panc-02 were obtained from the American Type Culture Collection. The pancreatic cancer cell line T3M-4 was purchased by MeisenCTCC (Zhejiang, China). BxPC-3 and T3M-4 cell lines were grown in RPMI 1640 medium (Shanghai BasalMedia Technologies Co., LTD.) containing 10% FBS (GE Healthcare, Chicago, IL, USA) and 1% penicillin–streptomycin solution (Invitrogen). To culture the Panc-02 cell line, a medium called Dulbecco’s modified Eagle medium from Shanghai BasalMedia Technologies Co., LTD. was used, which consisted of 10% FBS. The cell line HT-1080 was grown in MEM medium (Shanghai BasalMedia Technologies Co., LTD.) supplemented with 10% FBS, 1% penicillin-streptomycin solution, and 1% nonessential amino acids (NEAA-11140050; Gibco). […]
After imaging collection and image reconstruction, samples from euthanized experimental mice, including blood and multiple significant organs, were harvested and weighed. The radioactivity in each collected tissue was counted using an automated gamma counter (Wizard 2480, PerkinElmer) and the accumulation of radioactivity in different tissues and organs was quantified and expressed as %ID/g (mean ± SD). […] At the end of each probe imaging and radioactivity counting study, tumor tissues were fixed in paraformaldehyde tissue fixative. […]

The nature of data set [7]: Safety and biodistribution of [68Ga]Ga-DOTA-FD1 in healthy volunteers and patients. In kind it is in vivo, human. Here is the method: as §3, with “For tumor staging/restaging, a total of 6 patients received paired PET/CT imaging using [^68Ga]Ga-DOTA-FD1.” left out
The nature of data set [8]: microPET/CT imaging, ROI analysis, HT-1080 tumor models. The class given is in vivo, mice. Particulars: nude (thymus-free), mouse, intravenous, 3 MBq, 30 min p.i. Here is the method: as §1, §2
Data set [9] is described as follows: microPET/CT imaging, ROI analysis, HT1080-FAP tumor models. The class given is in vivo, mice. The following applies: nude (thymus-free), mouse, intravenous. Here is the method:
as §4
MicroPET imaging was performed on isoflurane-anesthetized mice injected intravenously via the lateral tail vein with around 3 MBq (2.5 nmol) of the radioligand at certain times. Regarding the FD1 blocking group, an excessive amount of unlabeled FD1 (200-fold) was simultaneously injected with [^68Ga]Ga-DOTA-FD1 into the tail vein of another batch of mice. Images were acquired using an IRIS PET/CT system (Inviscan Imaging Systems). PET data were reconstructed using a nonscatter-corrected 3D-ordered subset expectation […]/maximum a posteriori (OSEM3D/MAP) algorithm. The information was analyzed using OsiriX Lite software (Pixmeo SARL) and Inveon Research Workplace (Siemens Preclinical Solutions). The percentage of injected dose per gram of tissue (%ID/g, mean ± SD) was utilized to present the distribution of tracers in the ROI, encompassing tumor, heart, lung, liver, kidney, and muscle.

Read-outs that look alike come from different tables or passages of the source.

Consider `CCCCCC(=O)N[C@H]1CSCc2cc(CSCCNC(=O)[C@H](CCCCN)NC(=O)[C@@H](NC(=O)[C@H](CCSC)NC(=O)CN3CCN(CC(=O)O)CCN(CC(=O)O)CCN(CC(=O)O)CC3)C(C)C)cc(c2)CSC[C@@H](C(=O)O)NC(=O)[C@H](Cc2ccccc2)NC(=O)[C@H](CCC(N)=O)NC(=O)[C@H]([C@@H](C)O)NC(=O)[C@@H]2CCCN2C(=O)[C@@H]2CCCN2C1=O` [[^68Ga]Ga-DOTA-FD1, metal not drawn], for which the tissue uptake at 1 h in data set [1] worked out at 0.92 ± 0.22 %ID/g; in [5] it was 0.96 ± 0.07 %ID/g. Moreover, in data set [2] (Patient 1, thyroid cancer, recurrence detection), the “Bone and visceral metastases Median SUVmax (range)” value is reported as 2.87 (2.52–4.45). In addition, the “Lymph node metastases Median SUVmax (range)” value in data set [2] (Patient 3, esophagus cancer) is 4.29 (4.02–4.57); in data set [2] (Patient 4, NPC) it was 5.67 (4.14–7.76). Also, the “Primary tumor Median SUVmax” value in data set [2] (Patient 3, esophagus cancer) is given as 7.64; in data set [2] (Patient 4, NPC), 5.27; in [2] (Patient 5, esophagus cancer), 10.07; in data set [2] (Patient 6, esophagus cancer) it was 13.42. For the same compound, the SUV at 1 h in [3] (primary tumour lesions, 4 primary lesions, initial staging patients, 60 min after injection, read-out: median SUVmax of primary lesions) was found to be 8.86 SUV; in data set [3] (15 lymph node metastases in 3 patients, read-out: median SUVmax of lymph node metastases), 5.6 SUV. In addition, the tissue uptake is 2.15 ± 0.58 %ID/g in [4] (750 ug, HT1080-FAP tumor, co-injected excess unlabeled FD1 (750 μg), read-out: tumor uptake (biodistribution) upon FD1 blocking); 19.2 ± 6.51 %ID/g in [4] (3 MBq, HT1080-FAP tumor, without blocking, read-out: tumor uptake (biodistribution study)); 30.3 ± 4.45 %ID/g in data set [4] (kidney, 750 ug, HT1080-FAP models, co-injected excess unlabeled FD1 (750 μg), read-out: kidney accumulation (biodistribution analysis) upon FD1 blocking); 110 ± 27.1 %ID/g in [4] (kidney, 3 MBq, HT1080-FAP models, without blocking, read-out: kidney accumulation (biodistribution analysis)); 2.63 ± 1.28 %ID/g in data set [9] (750 ug, HT1080-FAP tumor, co-injected excess unlabeled FD1 (750 μg), read-out: tumor uptake (ROI analysis) upon FD1 blocking); 8.85 ± 3.3 %ID/g in [9] (3 MBq, HT1080-FAP tumor, without blocking, read-out: tumor uptake (ROI analysis)). Moreover, the tissue uptake in data set [9] (kidney, 750 ug, HT1080-FAP models, co-injected excess unlabeled FD1 (750 μg), read-out: kidney accumulation (ROI analysis) upon FD1 blocking) was 10.3 ± 1.67 %ID/g; in [9] (kidney, 3 MBq, HT1080-FAP models, without blocking, read-out: kidney accumulation (ROI analysis)), 40.6 ± 4.76 %ID/g. The tissue uptake at 0.5 h worked out at 1.02 ± 0.41 %ID/g in data set [6] and 1.97 ± 0.45 %ID/g in data set [8]. Moreover, the “uptake in normal tissues and organs” value in [7] (healthy volunteers (n = 3), PET 60 min after injection) was “negligible uptake in normal tissues and organs except the kidneys”. The adverse events result in [7] (healthy volunteers and patients, during the injection and at 4 h follow-up, 3.0 to 3.7 MBq/kg) is on record as “No adverse events were observed”.
